The record followed here is paper PMC9251361, “Effects of LPS Composition in Escherichia coli on Antibacterial Activity and Bacterial Uptake of Antisense Peptide-PNA Conjugates” (Frontiers in Microbiology, 2022).

The subject of one data set is E. coli ATCC25922. The class given is cell-based, Escherichia coli. The settings on record: strain ATCC25922, MHB, 37°C, 18 h; for MIC values: Table 3. As to the method:
(§1) All strains used in this study are listed in Supplementary Table S1. E. coli strains WD101 and WD101ΔeptAΔarnD (WD101ΔΔ) were kindly provided by Professor M. Stephen Trent (University of Georgia, USA). E. coli strains DB wild type, DB L5, and DB L9 were kindly provided by Dr. Douglas Browning (University of Birmingham, UK). Single deletion strains for envelope mutants were obtained from the Keio-collection (Baba et al., [2006]). All strains were grown in non-cation adjusted Muller Hinton broth (MHB) (Sigma, Cat. No. 70192). BPP-PNA conjugates (Table 1) were obtained as described previously (Good et al., [2001]; Ghosal et al., [2013]; Hansen et al., [2016]).
(§2) Minimum inhibitory concentration (MIC) values were determined by broth microdilution according to standard protocols adapted to peptide-based antimicrobial compounds (Goltermann and Nielsen, [2020]). Briefly, 190 μl bacterial cell culture containing ≈10^5 cfu/ml was dispensed into a 96-well plate (Thermo Scientific, Nunc Cat. No. 260896, 96F straight w/lid) along with 10 μl PNA stock solution or antibiotic. The plate was incubated in a Tecan Genios plate reader at 37°C for 18 h, and OD was measured every 20 min at 595 nm. The MIC was determined as the lowest concentration, which inhibited visible growth (OD < 0.1) in the wells. […] Experiments were performed in triplicates as a minimum.

The subject of data set [1] is E. coli R3 core type (F653). The class given is cell-based, Escherichia coli. The conditions noted are these: Table 2; strain R3; MHB, 37°C, 18 h. As to the method:
as §1, §2

The test system of data set [2] is E. coli WD101 (polymyxin-resistant pmrA^C). The class given is cell-based, Escherichia coli. The settings on record: Table 2; strain WD101; MHB, 37°C, 18 h. As to the method:
as §1, §2

Data set [3] has as its system E. coli R4 core type (F2513). In kind it is cell-based, Escherichia coli. The settings on record: Table 2; strain R4; MHB, 37°C, 18 h. As to the method:
as §1, §2

The test system of data set [4] is E. coli 122 ΔrfaF (ATCC25922 ΔrfaF). In kind it is cell-based, Escherichia coli. The settings on record: Table 2; strain 122 ΔrfaF; MHB, 37°C, 18 h. As to the method:
as §1, §2

Data set [5] relates to E. coli R2 core type (F632). In kind it is cell-based, Escherichia coli. The settings on record: Table 2; strain R2; MHB, 37°C, 18 h. As to the method:
as §1, §2

Data set [6] concerns E. coli 123 ΔrfaG (ATCC25922 ΔrfaG). The class given is cell-based, Escherichia coli. The settings on record: Table 2; strain 123 ΔrfaG; MHB, 37°C, 18 h. As to the method: as §1, §2
A further data set deals with E. coli WD101ΔΔ. In kind it is cell-based, Escherichia coli. The settings on record: Table 2; strain WD101ΔΔ; MHB, 37°C, 18 h. As to the method:
as §1, §2

The next data set relates to E. coli K12 MG1655. Description: microbe, parasite or virus in culture. The class given is cell-based, Escherichia coli. The conditions noted are these: 37°C, 18 h; for MIC values: Table 3, strain MG1655. As to the method: as §1, §2
Data set [7] has as its system E. coli R1 core type (F470). In kind it is cell-based, Escherichia coli. The settings on record: Table 2, strain R1* (48 h), MHB, 37°C. As to the method:
as §1
Minimum inhibitory concentration (MIC) values were determined by broth microdilution according to standard protocols adapted to peptide-based antimicrobial compounds (Goltermann and Nielsen, [2020]). Briefly, 190 μl bacterial cell culture containing ≈10^5 cfu/ml was dispensed into a 96-well plate (Thermo Scientific, Nunc Cat. No. 260896, 96F straight w/lid) along with 10 μl PNA stock solution or antibiotic. […] The MIC was determined as the lowest concentration, which inhibited visible growth (OD < 0.1) in the wells. […] Experiments were performed in triplicates as a minimum.

Data set [8] relates to E. coli 121 ΔrfaE (ATCC25922 ΔrfaE). Description: MIC broth microdilution. The class given is cell-based, Escherichia coli. The conditions noted are these: Table 2; strain 121 ΔrfaE; MHB, 37°C, 18 h. As to the method:
as §1, §2

For data set [9], the system named is E. coli ATCC25922 ΔrfaC (120 ΔrfaC). Description: MIC broth microdilution. In kind it is cell-based, Escherichia coli. The settings on record: for MIC values: Table 3, strain ATCC25922 ΔrfaC. As to the method:
as §1, §2
On the technique in general: In broth dilution the organism is exposed to a series of concentrations in liquid medium.

For another data set, the system named is E. coli AS19. Description: MIC broth microdilution. The class given is cell-based, Escherichia coli. The settings on record: Table 2; strain AS19; MHB, 37°C, 18 h. As to the method:
as §1, §2

The test system of data set [10] is E. coli inner core mutants (ΔrfaC, ΔrfaE, ΔrfaF, and ΔrfaG). Description: MIC broth microdilution, inner core mutants as a group. The conditions noted are these: all the inner core mutants as well as AS19. In kind it is cell-based, Escherichia coli. As to the method: as §2
Four inner core mutants (ΔrfaC, ΔrfaE, ΔrfaF, and ΔrfaG) with increasingly shortened LPS core (Figure 2A) were investigated. The deletions span the three heptosyl and glycosyltransferases rfaC, rfaF, and rfaG responsible for attaching heptose and glucose, respectively, to the growing LPS core, and rfaE required for the synthesis of the heptose precursor needed for LPS synthesis (Figure 2A). […] Furthermore, all strains were characterized with respect to hydrophobicity and accessible cell surface charge (Figure 2B, vide infra). […] It is known that the peptide portion of the conjugates can have a membrane disruptive effect at high concentrations (Eriksson et al., [2002]). […]

A further data set deals with E. coli MG1655 ΔsbmA. Description: MIC broth microdilution. In kind it is cell-based, Escherichia coli. The conditions noted are these: Table 3; strain MG1655 ΔsbmA; MHB, 37°C, 18 h. As to the method:
as §1, §2

Data set [11] is described as follows: HPLC analysis of BPP-PNA relative hydrophobicity. The settings on record: chromatographic measure of hydrophobicity; RP18 column (150 ×3.9 mm DeltaPak, 5 μm); 0 to 40% buffer B (95% acetonitrile, 0.1% TFA) in 30 min; conjugates dissolved in water and mixed; recorded at 260 nm. The class given is physicochemical. As to the method:
Hydrophobicity of the BPP-PNA conjugates was measured using reversed phase high-performance liquid chromatography (HPLC) on an RP18 column (150 ×3.9 mm DeltaPak, 5 μm; Waters Corporation, Milford, MA, USA). Briefly, all the BPP-PNA conjugates were dissolved in water and mixed. The mixture of BPP-PNA conjugates has been run on HPLC and recorded at 260 nm. The HPLC buffers used in this study are buffer A composed of 5% acetonitrile, 0.1% trifluoroacetic acid (TFA), and 95% H2O, and buffer B composed of 95% acetonitrile, 0.1% TFA, and 5% H2O; the gradient starts from 100% of buffer A, 0% of buffer B, and ends with 60% of buffer A, 40% of buffer B in 30 min. Hydrophobicity of the compound was directly correlated to the HPLC retention time of each conjugate.

Setting [12] is: Table 2, strain K12 MG1655, MHB.

≈ marks a conversion by molar mass, not a printed value. Where two headings read alike, the source gives them in different places. Positions of bridges follow the written chain, without caps; N, C: chain ends. Non-standard residues stand in square brackets, D forms with d. Residues, ends and D or L forms follow the SMILES beside them. *: point of attachment. X1 = CC[C@H](C)CCCCC(=O)*; Dab = NCC[C@H](N)C(=O)O Bounds are passed on as bounds.

On to `CC[C@H](C)CCCCC(=O)N[C@@H](CCN)C(=O)N[C@H](C(=O)N[C@@H](CCN)C(=O)N[C@H]1CCNC(=O)[C@H]([C@@H](C)O)NC(=O)[C@H](CCN)NC(=O)[C@H](CCN)NC(=O)[C@H](CC(C)C)NC(=O)[C@@H](CC(C)C)NC(=O)[C@H](CCN)NC1=O)[C@@H](C)O` [Colistin] (X1-[Dab]T[Dab][Dab][Dab][dL]L[Dab][Dab]T; lactam 4-C (inferred); N-terminus assumed), for which the “Minimum inhibitory concentration, Colistin” value with E. coli ATCC25922 (Table 2) worked out at 0.06 µg/mL (≈ 0.0513 µM); in [1], 0.06 µg/mL (≈ 0.0513 µM); in data set [2], 4 µg/mL (≈ 3.42 µM); in data set [3], 0.03 µg/mL (≈ 0.0257 µM); in data set [4], 0.016 µg/mL (≈ 0.0137 µM); in [5] it was 0.03 µg/mL (≈ 0.0257 µM). Further, the “Minimum inhibitory concentration, Colistin” value in data set [6] was at most 0.016 µg/mL; with E. coli WD101ΔΔ, at most 0.016 µg/mL; in the data set with E. coli K12 MG1655 (setting [12]), 0.03 µg/mL (≈ 0.0257 µM); in data set [7] it was 0.016 µg/mL (≈ 0.0137 µM).
For `CCCCCCCCCCCCOS(=O)(=O)[O-].[Na+]` [SDS, sodium dodecyl sulfate], the “Minimum inhibitory concentration, SDS” value is at most 0.03% in data set [8]; at most 0.03% in data set [9] (Table 2, strain 120 ΔrfaC, MHB, 37°C, 18 h); at most 0.03% in the data set on E. coli AS19; 0.12% in the data set on E. coli ATCC25922 (Table 2); above 0.5% in [1]; 0.12% in data set [2]. Further, the “Minimum inhibitory concentration, SDS” value in [3] is given as at most 0.06%; in data set [4] it was at most 0.03%; in data set [5], above 0.5%; in [6], at most 0.03%; in the data set with E. coli WD101ΔΔ, 0.12%; in the data set on E. coli K12 MG1655 (setting [12]), 0.12%. In addition, the “MIC, SDS” value in [10] is given as below 0.03%.
In the case of “-Cys- RAGLQFPVGRVHRLLRK-NH2 (BF2A) [PNA4030, anti acpP PNA conjugated to buforin 2a (BF2A) via Cys]”, the MIC values in data set [9] (MHB, 37°C, 18 h) was below 0.25 µM; in the data set on E. coli MG1655 ΔsbmA, 8 to 16 µM; against E. coli ATCC25922 it was 0.5 µM; in the data set on E. coli K12 MG1655 (MHB), 1 µM.
Turning to “-Cys-GKPRPYSPRPTSHPRPIRV-NH2 (Drosocin) [PNA4128, anti acpP PNA conjugated to drosocin via Cys]”, the MIC values is below 0.06 µM in data set [9] (MHB, 37°C, 18 h, listed as 4128); 4 to 8 µM in the data set on E. coli MG1655 ΔsbmA; 1 µM with E. coli ATCC25922 (listed as 4128); 0.5 to 1 µM with E. coli K12 MG1655 (MHB). Besides, in [9] (ΔrfaC-mutant vs ATCC25922), the “fold lower MIC in the ΔrfaC-mutant than the ATCC25922 control” value is on record as “more than 16 fold”.
Take “-Cys-GKPRPYSPRPTSHPRPIRV-NH2 (Drosocin) [PNA4242, mm for PNA4128]”: the MIC values was below 1 µM in data set [9] (MHB, 37°C, 18 h, listed as 4242) and above 8 µM against E. coli ATCC25922 (listed as 4242).
Turning to “-Cys-GKPRPYSPRPTSHPRPIRV-R-X-R-NH2 [PNA4448, anti acpP PNA conjugated to drosocin extended by R-X-R]”, the MIC values in [9] (MHB, 37°C, 18 h) is below 0.12 µM; in the data set with E. coli MG1655 ΔsbmA, 2 µM; with E. coli ATCC25922, 2 µM; in the data set on E. coli K12 MG1655 (MHB), 1 to 2 µM.
As for “-Cys-RAGLQFPVGRVHRLLRK-NH2 (BF2A) [PNA4243, mm for PNA4030]”, the MIC values was below 2 µM in data set [9] (MHB, 37°C, 18 h) and above 8 µM with E. coli ATCC25922.
As to “-Cys-RAGLQFPVGRVHRLLRK-R-X-R-NH2 (BF2A) [PNA4449, anti acpP PNA conjugated to BF2A extended by R-X-R]”, the MIC values was below 0.25 µM in data set [9] (MHB, 37°C, 18 h); above 4 µM with E. coli MG1655 ΔsbmA; 1 µM against E. coli ATCC25922; below 0.5 µM against E. coli K12 MG1655 (MHB).
With “-Cys-VDKPPYLPRPRPPRRIYNR-NH2 (oncocin) [PNA4124, anti acpP PNA conjugated to oncocin via Cys]”, the MIC values in [9] (MHB, 37°C, 18 h, listed as 4124) was 0.25 µM; in the data set with E. coli MG1655 ΔsbmA it was above 8 µM; with E. coli ATCC25922 (listed as 4124), above 2 µM; in the data set with E. coli K12 MG1655 (MHB) it was 8 µM.
Consider “-Cys-VDKPPYLPRPRPPRRIYNR-NH2 (oncocin) [PNA4700, mm for PNA4124]”, for which the MIC values in data set [9] (MHB, 37°C, 18 h, listed as 4700) is 4 µM; with E. coli ATCC25922 (listed as 4700) it was above 8 µM.
For the molecule “H-CTCATACTCT-NH2 [PNA2301, unconjugated anti acpP PNA, H-…-NH2]”, the Minimum inhibitory concentration with E. coli AS19 was 2 µM; in the data set with E. coli ATCC25922 (Table 2), above 16 µM; in [1] it was above 16 µM; in data set [3], above 16 µM; in data set [4], above 4 µM; in data set [6], above 16 µM. Moreover, in the data set on E. coli K12 MG1655 (Table 2, strain K12 MG1655, non-cation adjusted MHB, ≈10^5 cfu/ml, triplicates minimum), the Minimum inhibitory concentration was above 32 µM. For the same molecule, in data set [11], the “HPLC retention time (RT)” value was found to be 14 min.
